Reference: US20170333591A9, “ABSORBENT ARTICLE COMPRISING MALODOR REDUCTION COMPOSITIONS” (The Procter & Gamble Company, priority 2014, published 2017)

Experiment: Log of liquid dish neat product liquid-air partition coefficient
Format: physicochemical
Conditions: for Log of liquid dish neat product liquid-air partition coefficient (Comment Code): code letters K/L of the Comment Code

| Compound | Log of liquid dish neat product liquid-air partition coefficient (Comment Code) | Comment Code: Log of liquid dish neat product liquid-air partition coefficient |
| --- | --- | --- |
| CC(C)c1ccc2ncccc2c1 [Material 778] | K (Log of liquid dish neat product liquid-air partition coefficient greater than or equal to 7) |  |
| CC1(C)C2CC=C(CCC=O)C1C2 (stereo not shown) [Material 781] | K (Log of liquid dish neat product liquid-air partition coefficient greater than or equal to 7) |  |
| CC(=O)CCCC(C)CCCC(C)CCCC(C)C (stereo not shown) [Material 782] | K (Log of liquid dish neat product liquid-air partition coefficient greater than or equal to 7) |  |
| O=C1CCCC=CCCCCCCCCCC1 [Material 788] | K (Log of liquid dish neat product liquid-air partition coefficient greater than or equal to 7) | K (Log of liquid dish neat product liquid-air partition coefficient greater than or equal to 7) |
| C=Cc1ccc(O)cc1 [Material 789] |  | K (Log of liquid dish neat product liquid-air partition coefficient greater than or equal to 7) |
| CC1=CCC(O)(C(C)C)CC1 (stereo not shown) [Material 791] | K (Log of liquid dish neat product liquid-air partition coefficient greater than or equal to 7) |  |
| C=CCCC(=O)c1ccccc1 [Material 792] | K (Log of liquid dish neat product liquid-air partition coefficient greater than or equal to 7) |  |
| CCc1ccc(OC)c(O)c1 [Material 797] |  | K (Log of liquid dish neat product liquid-air partition coefficient greater than or equal to 7) |
| CC1=CCC(O)(C(C)C)CC1 (stereo not shown) [Material 800] | K (Log of liquid dish neat product liquid-air partition coefficient greater than or equal to 7) |  |
| COc1ccc(CCC(C)=O)cc1 [Material 803] | K (Log of liquid dish neat product liquid-air partition coefficient greater than or equal to 7) |  |
| CC1C(=O)CC2(C)CCCC(C)(C)C23CC13 (stereo not shown) [Material 804] | K (Log of liquid dish neat product liquid-air partition coefficient greater than or equal to 7) | K (Log of liquid dish neat product liquid-air partition coefficient greater than or equal to 7) |
| CCC=C1OC(=O)c2ccccc21 [Material 805] | K (Log of liquid dish neat product liquid-air partition coefficient greater than or equal to 7) |  |
| CCCCCCCCCC=CC=O [Material 806] | K (Log of liquid dish neat product liquid-air partition coefficient greater than or equal to 7) |  |
| CC(CC=O)CCc1ccccc1 (stereo not shown) [Material 807] | K (Log of liquid dish neat product liquid-air partition coefficient greater than or equal to 7) |  |
| Cc1n[nH]cc1-c1ccccc1 [Material 808] |  | K (Log of liquid dish neat product liquid-air partition coefficient greater than or equal to 7) |
| COc1cc(C)cc(O)c1 [Material 811] |  | K (Log of liquid dish neat product liquid-air partition coefficient greater than or equal to 7) |
| C=C(C=O)C(C)CCC=C(C)C (stereo not shown) [Material 819] |  | K (Log of liquid dish neat product liquid-air partition coefficient greater than or equal to 7) |
| CC(C)c1ccc(CCC=O)cc1 [Material 826] | K (Log of liquid dish neat product liquid-air partition coefficient greater than or equal to 7) |  |
| CCCCCCCCC=CC#N [Material 827] | K (Log of liquid dish neat product liquid-air partition coefficient greater than or equal to 7) |  |

| Compound | Log of liquid dish neat product liquid-air partition coefficient (Comment Code) | Comment Code: Log of liquid dish neat product liquid-air partition coefficient |
| --- | --- | --- |
| CCCCCCCCC=CC=O [Material 828] | K (Log of liquid dish neat product liquid-air partition coefficient greater than or equal to 7) |  |
| CCCC(=O)OCCc1ccccc1 [Material 831] | K (Log of liquid dish neat product liquid-air partition coefficient greater than or equal to 7) |  |
| CC(=O)OCCc1ccccc1 [Material 832] |  | K (Log of liquid dish neat product liquid-air partition coefficient greater than or equal to 7) |
| OCCOc1ccccc1 [Material 834] | K (Log of liquid dish neat product liquid-air partition coefficient greater than or equal to 7) |  |
| CCC(=O)OCCc1ccccc1 [Material 835] |  | K (Log of liquid dish neat product liquid-air partition coefficient greater than or equal to 7) |
| CCCCCCCC1(C)OCC(C)O1 (stereo not shown) [Material 838] |  | K (Log of liquid dish neat product liquid-air partition coefficient greater than or equal to 7) |
| CCC(C)c1nccnc1OC (stereo not shown) [Material 845] |  | K (Log of liquid dish neat product liquid-air partition coefficient greater than or equal to 7) |
| CNC(=O)C(C)(C(C)C)C(C)C [Material 846] |  | K (Log of liquid dish neat product liquid-air partition coefficient greater than or equal to 7) |
| CC(C)Cc1ccc2ccccc2n1 [Material 849] | K (Log of liquid dish neat product liquid-air partition coefficient greater than or equal to 7) |  |
| CCC=CCCC=CCO [Material 865] | K (Log of liquid dish neat product liquid-air partition coefficient greater than or equal to 7) |  |
| CCCCCCCCCCO [Material 868] | K (Log of liquid dish neat product liquid-air partition coefficient greater than or equal to 7) |  |
| C=CCCCCCCCCCO [Material 870] | K (Log of liquid dish neat product liquid-air partition coefficient greater than or equal to 7) |  |
| C=CCCCCCCCCC=O [Material 871] | K (Log of liquid dish neat product liquid-air partition coefficient greater than or equal to 7) |  |
| CC1=C2CC(C(C)(C)O)CCC2(C)CCC1 (stereo not shown) [Material 872] | K (Log of liquid dish neat product liquid-air partition coefficient greater than or equal to 7) | K (Log of liquid dish neat product liquid-air partition coefficient greater than or equal to 7) |
| CC=CC(=O)C1C(C)=CCCC1(C)C (stereo not shown) [Material 880] |  | K (Log of liquid dish neat product liquid-air partition coefficient greater than or equal to 7) |
| CC(=O)OC(C)CCC=C(C)CCC=C(C)C (stereo not shown) [Material 881] | K (Log of liquid dish neat product liquid-air partition coefficient greater than or equal to 7) |  |
| CCCCCCCC/C=C\CC=O [Material 884] | K (Log of liquid dish neat product liquid-air partition coefficient greater than or equal to 7) |  |
| C=C[C@](C)(O)CCC=C(C)C [Material 888] |  | K (Log of liquid dish neat product liquid-air partition coefficient greater than or equal to 7) |
